Laboratory results from paper PMC5032167, “A conjugate of methotrexate and an analog of luteinizing hormone releasing hormone shows increased efficacy against prostate cancer” (Scientific Reports, 2016).
Marks after values point to notes of the source that are not given here.

Experiments:
PC-3 tumor xenografts = assay: In vivo anti-tumor activity, PC-3 tumor xenografts; parameters: species or system athymic BALB/c nude mice; conditions: for effect on tumor volume / Mean tumor weight / Mean tumor volume, Final: end of study; for Inhibition ratio of tumor weight / Inhibition ratio of tumor volume: against saline; for Inhibition ratio of tumor weight / Inhibition ratio of tumor volume / Mean tumor volume, Initial / Mean tumor weight / Mean tumor volume, Final / Tumor volume doubling time: n = 10; for Inhibition ratio of tumor volume / Tumor volume doubling time: i.v. twice weekly for 4 weeks; for Mean tumor volume, Initial: baseline, nude mice with PC-3 xenografts; for Mean tumor volume, Initial / Mean tumor weight / Mean tumor volume, Final: means ± SD; for Mean tumor volume, Final: i.v. tail vein twice weekly for 4 weeks; for Tumor volume doubling time: saline control 6.13 days
Method: Four week-old male athymic BALB/c nude mice were obtained from Sino-British SIPPR/BK Laboratory Animal Ltd (Shanghai, China). The animals were housed in sterile cages under laminar flow hoods in a temperature-controlled room with a 12h light/12h dark schedule and were fed autoclaved chow and water ad libitum.
PC-3 cells were harvested from subconfluent cultures after a brief exposure to 0.25% trypsin and 0.2% EDTA. Trypsinization was stopped by adding medium containing 10% FBS. The cells were washed once in serum-free medium and resuspended in PBS. Only suspensions consisting of single cells with >90% viability were used for the injections. PC-3 cells (1 × 10^7) in 100 μL PBS suspended in Matrigel (0.1 mg, Collaborative Biomedical Products Becton Dickinson Labware, Bedford, MA) were injected subcutaneously into the interscapular area using a 27-gauge needle.
On day 21, after PC-3 cell implantation, mice bearing tumors […] were randomized into the following four treatment groups (n = 10): saline controls, MTX treatment, [Dlys^6]-LHRH-MTX treatment and MTX plus [Dlys^6]-LHRH treatment. Treatments were made in 100 μL PBS and were given intravenously by tail vein injection twice weekly for 4 weeks. The vehicle-treated group received an equivalent amount of PBS. Tumor volumes were measured with calipers and the body weights of the mice were measured twice a week. Tumor volumes were calculated with the following formula: V(mm^3) = length × width^2/2, where width represents the shortest measurement in millimeters. The animals were euthanized 7 days after the last treatment. Body weights, tumor weights and organ weights were recorded.

PC-3 cells [1] = assay: MTT cytotoxicity assay, PC-3 cells; type: cell-based; conditions: Homo sapiens, 24 h treatment, means ± SD, n = 3
DU145 cells = assay: MTT cytotoxicity assay, DU145 cells; type: cell-based; conditions: Homo sapiens, DU-145, 24 h treatment, means ± SD, n = 3
Method: (§1) The LNCaP cells were grown in RPMI 1640 medium(Gibco Invitrogen, CA) containing 10% FBS and 1% penicillin/streptomycin and the DU145 cells were grown in Eagle’s minimum essential medium (MEM) (Gibco Invitrogen, CA) with 2 mM L-glutamine and Earle’s BSS, 1.5 g/L sodium bicarbonate, 0.1mM non-essential amino acids, 1 mM sodium pyruvate, 10% FBS and 1% penicillin/streptomycin.
(§2) The cytotoxic effect of MTX, [Dlys^6]-LHRH, and [Dlys^6]-LHRH-MTX was evaluated using the methylthiazol tetrazolium (MTT) assay (Sigma Aldrich, MO), which determines the number of viable cells from the formazan crystals produced by metabolic activity.
(§3) In the equation, T represents the absorption value of the treatment group; C is the absorption value of the control (untreated) group; and B refers to the absorption value of the culture medium. IC50 values (μg/mL) were calculated with SPSS software. In a competition assay, Prostate cancer cells (5,000 per well) were separately incubated in 96-well plates in triplicate with [DLys^6]-LHRH–MTX alone and [DLys^6]-LHRH free peptide and [DLys^6]-LHRH–MTX together, and the cells were incubated for 24 hr. The plates were then analyzed with the MTT method.

PC-3 cells [2] = assay: Apoptosis analysis, Annexin V-FITC/PI staining, flow cytometry; type: cell-based, human; conditions: 24 h; for late apoptotic/early necrotic (AV+/PI+) cells: quadrant B2; for early apoptotic (AV+/PI−) populations: quadrant B4
Method: To quantitatively investigate apoptotic and early necrotic events in these treated cultures, the fluorescent probe Annexin V-FITC and PI were used, The presence of a apoptotic and early necrotic cells was then determined and quantified by flow cytometry analysis which clearly differentiated normal cells with low Annexin V-FITC and low PI staining, apoptotic cells with high Annexin V-FITC and low PI staining, necrotic cells with high Annexin V-FITC and high PI staining and cell debris with low Annexin VFITC and high PI staining.
Figure 4 Quantitative apoptotic measurement in PC-3 cells after treatment with [DLys^6]-LHRH-MTX and MTX, the concentration-dependent effects on apoptosis following treatment with MTX and [DLys^6]-LHRH-MTX for 24 at doses of 0.98 μmol/L and 3.91 μmol/L were determined by flow cytometry analysis. Results were expressed as a dot plot of Annexin V -FITC vs. PI. […]
To quantitatively evaluate the induction of apoptosis by flow cytometry, Annexin-V-FITC/PI staining was performed. Briefly, PC-3 cells were seeded in a 6-well culture plate at a density of 2 × 10^5 cells per well, and treated with various concentrations of MTX or [Dlys^6]-LHRH or [Dlys^6]-LHRH-MTX for 24 h. The cells were harvested and then stained with Annexin V-FITC/PI solution (1:1, v/v, […]) in the dark for 15 min at room temperature. After washing with PBS, the cell suspensions in buffer were gently vortexed, and analyzed within 1 h by flow cytometry (Beckton Dickinson, CA, […]).

LNCaP cells = assay: MTT cytotoxicity assay, LNCaP cells; type: cell-based; conditions: Homo sapiens, 24 h treatment, means ± SD, n = 3
Method: as §1, §2, §3

[3] = system: normal human prostate fibroblast (HPrF) cells; assay: cells
Method: (§4) To determine the selectivity of LHRH-MTX, we performed a MTT experiment with normal human prostate fibroblast (HPrF) cells.
(§5) HPrF cells were exposed to MTX or [DLys^6]-LHRH-MTX at 0.015-1000 μmol/L. Growth inhibition was determined by MTT assay.
(§6) PC-3 cells and HPrF cells were maintained in T-media (Gibco Invitrogen, CA) supplemented with 10% fetal bovine serum (FBS) (Gibco Invitrogen, CA) and 1% penicillin/streptomycin (Cellgro Mediatech, nc., VA). […]
(§7) The cytotoxic effect of MTX, [Dlys^6]-LHRH, and [Dlys^6]-LHRH-MTX was evaluated using the methylthiazol tetrazolium (MTT) assay (Sigma Aldrich, MO), which determines the number of viable cells from the formazan crystals produced by metabolic activity[26][33][34]. […] The absorption at 570 nm was recorded with an ELISA plate reader (Bio-Rad, Microplate Reader 550 and the growth inhibitory (GI) rate was calculated according to the following equation: GI(%) = 100 − [T − B)/(C − B) × 100].

[4] = system: prostate cancer cell lines (PC-3, DU145 and LNCaP); assay: MTT cytotoxicity assay, prostate cancer cell lines as a group; type: cell-based, human; conditions: 24 h
Method: as §1, §2, §3

[5] = system: normal human prostate fibroblast (HPrF) cells
Method: as §4, §5, §6, §7

Compound	effect on tumor volume (PC-3 tumor xenografts; PC-3 xenografts)	Inhibition ratio of tumor weight (PC-3 tumor xenografts) [%]	Inhibition ratio of tumor volume (PC-3 tumor xenografts) [%]	Mean tumor volume, Initial (PC-3 tumor xenografts) [mm3]	Mean tumor weight (PC-3 tumor xenografts)	Mean tumor volume, Final (PC-3 tumor xenografts)	Tumor volume doubling time (PC-3 tumor xenografts) [days]	IC50 (PC-3 cells [1]) [µM]	IC50 (DU145 cells) [µM]	late apoptotic/early necrotic (AV+/PI+) cells (PC-3 cells [2]; PC-3, 0.98 μmol/L) [%]	early apoptotic (AV+/PI−) populations (PC-3 cells [2]; PC-3, 0.98 μmol/L) [%]	late apoptotic/early necrotic (AV+/PI+) cells (PC-3 cells [2]; PC-3, 3.91 μmol/L) [%]	early apoptotic (AV+/PI−) populations (PC-3 cells [2]; PC-3, 3.91 μmol/L) [%]	IC50 (LNCaP cells) [µM]	IC50 [3] [µM]	histology of tumor sections, hematoxylin/eosin (PC-3 tumor xenografts; PC-3 xenografts, Fig. 7)	tumor burden (PC-3 tumor xenografts; day 30, n = 10, Fig. 6)	cytotoxicity against prostate cancer cell lines [4]	cytotoxicity against HPrF cells [5]
CN(Cc1cnc2nc(N)nc(N)c2n1)c1ccc(C(=O)N[C@@H](CCC(=O)O)C(=O)O)cc1 [MTX, Methotrexate]	significant anti-tumor effects	59.90	61.88	63.38 ± 7.38	0.82 ± 0.12 ^a g	700.39 ± 36.48 ^a mm3	8.88	6.34 ± 1.01	8.03 ± 1.29	8.35	15.38	9.52	30.88	9.68 ± 1.24	42.3 ± 7.25				
[DLys^6]-LHRH	did not affect the tumor volume	4.41	2.88	62.49 ± 13.70	1.95 ± 0.34 g	1784.58 ± 95.99 mm3	6.13									predominantly viable cells	unchanged	no cytotoxicity	no cytotoxicity
